Assay results published in PubChem BioAssay AID2060483 (Molecular Pharmacology Branch, DTP, NCI, 2025).

Test system: K24384-001-R-PDC complex spheroids, viability
Assay: Anticancer human tumor K24384-001-R-PDC patient-derived pancreatic adenocarcinoma cell line growth inhibition [GQUAD]
Details: for IC50: curve of first compound; for viability, T/C: stronger effect = lower value; active means viability on the fitted dose curve at most 10% of control; inactive means the rest
Outline: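 Multi-cell-type spheroids of tumor cells with HUVEC and mesenchymal stem cells, treated with drug combinations. Concentrations descend in half-log steps from near clinical Cmax, or from 10 microM where Cmax is unknown; viability read-out.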

[1] = second compound 0.0316 µM, first compound 0.0316 µM
[2] = second compound 0.0316 µM, first compound 0.1 µM
[3] = second compound 0.0316 µM, first compound 0.316 µM
[4] = second compound 0.0316 µM, first compound 1 µM
[5] = second compound 0.0316 µM, first compound 3.16 µM
[6] = second compound 0.0316 µM, first compound 10 µM
[7] = second compound 0.1 µM, first compound 0.0316 µM
[8] = second compound 0.1 µM, first compound 0.1 µM
[9] = second compound 0.1 µM, first compound 0.316 µM
[10] = second compound 0.1 µM, first compound 1 µM
[11] = second compound 0.1 µM, first compound 3.16 µM
[12] = second compound 0.1 µM, first compound 10 µM
[13] = second compound 0.316 µM, first compound 0.0316 µM
[14] = second compound 0.316 µM, first compound 0.1 µM
[15] = second compound 0.316 µM, first compound 0.316 µM
[16] = second compound 0.316 µM, first compound 1 µM
[17] = second compound 0.316 µM, first compound 3.16 µM
[18] = second compound 0.316 µM, first compound 10 µM
[19] = second compound 1 µM, first compound 0.0316 µM
[20] = second compound 1 µM, first compound 0.1 µM
[21] = second compound 1 µM, first compound 0.316 µM
[22] = second compound 1 µM, first compound 1 µM
[23] = second compound 1 µM, first compound 3.16 µM
[24] = second compound 1 µM, first compound 10 µM
[25] = second compound 3.16 µM, first compound 0.0316 µM
[26] = second compound 3.16 µM, first compound 0.1 µM
[27] = second compound 3.16 µM, first compound 0.316 µM
[28] = second compound 3.16 µM, first compound 1 µM
[29] = second compound 3.16 µM, first compound 3.16 µM
[30] = second compound 3.16 µM, first compound 10 µM
[31] = second compound 10 µM, first compound 0.0316 µM
[32] = second compound 10 µM, first compound 0.1 µM
[33] = second compound 10 µM, first compound 0.316 µM
[34] = second compound 10 µM, first compound 1 µM
[35] = second compound 10 µM, first compound 3.16 µM
[36] = second compound 10 µM, first compound 10 µM
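Further: spheroids exposed to compounds for seven days.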

COc1cc(C2c3cc4c(cc3C(OC3OC5COC(C)OC5C(O)C3O)C3COC(=O)C23)OCO4)cc(OC)c1O (stereo unspecified) + Cc1cnc(CNC(=O)c2c(=O)c3ccc(N4CCCN(C)CC4)nc3n3c2sc2ccccc23)cn1
0.0316 µM: IC50 (second compound 0.316 µM)
< 0.0316 µM: IC50 (second compound 1 µM) | IC50 (second compound 3.16 µM) | IC50 (second compound 10 µM)
inactive: viability, T/C [1] 79.9% | viability, T/C [2] 71.2% | viability, T/C [3] 99.5% | viability, T/C [4] 45.1% | viability, T/C [5] 45.3% | viability, T/C [6] 25.9% | viability, T/C [7] 62.1% | viability, T/C [8] 68.8% | viability, T/C [9] 61.3% | viability, T/C [10] 57.5% | viability, T/C [11] 47.8% | viability, T/C [12] 34.1% | viability, T/C [13] 46.1% | viability, T/C [14] 51.4% | viability, T/C [15] 46% | viability, T/C [16] 46.4% | viability, T/C [17] 52.4% | viability, T/C [18] 34.8% | viability, T/C [19] 35.1% | viability, T/C [20] 49.1% | viability, T/C [21] 38.1% | viability, T/C [22] 46% | viability, T/C [23] 43.4% | viability, T/C [24] 30.8% | viability, T/C [25] 36.3% | viability, T/C [26] 44.9% | viability, T/C [27] 41.2% | viability, T/C [28] 47.1% | viability, T/C [29] 39% | viability, T/C [30] 26% | viability, T/C [31] 30.4% | viability, T/C [32] 28.1% | viability, T/C [33] 32.3% | viability, T/C [34] 33% | viability, T/C [35] 10.4%
2.38 µM: IC50 (second compound 0.1 µM)
active: viability, T/C [36] 0.63%
0.865 µM: IC50 (second compound 0.0316 µM)

COc1ccc([C@@H](O)c2cc(-c3ncnc4cc(N5CCOCC5)ccc34)c(F)cc2Cl)nn1 + Cc1[nH]c2ccc(F)cc2c1-c1nc2c3cccnc3c3ncccc3c2[nH]1
2.99 µM: IC50 (second compound 0.0316 µM)
1.69 µM: IC50 (second compound 10 µM)
3.38 µM: IC50 (second compound 1 µM)
2.1 µM: IC50 (second compound 3.16 µM)
4.28 µM: IC50 (second compound 0.316 µM)
2.48 µM: IC50 (second compound 0.1 µM)
inactive: viability, T/C [1] 100% | viability, T/C [2] 89.6% | viability, T/C [3] 68.3% | viability, T/C [4] 64.6% | viability, T/C [5] 49.1% | viability, T/C [6] 38.6% | viability, T/C [7] 79.7% | viability, T/C [8] 95.4% | viability, T/C [9] 92.7% | viability, T/C [10] 73% | viability, T/C [11] 44.5% | viability, T/C [12] 31.9% | viability, T/C [13] 101% | viability, T/C [14] 115% | viability, T/C [15] 99.4% | viability, T/C [16] 66.8% | viability, T/C [17] 65.1% | viability, T/C [18] 28.4% | viability, T/C [19] 81.7% | viability, T/C [20] 99.5% | viability, T/C [21] 83.9% | viability, T/C [22] 67.1% | viability, T/C [23] 54.1% | viability, T/C [24] 30.3% | viability, T/C [25] 87.9% | viability, T/C [26] 76.8% | viability, T/C [27] 58% | viability, T/C [28] 73.5% | viability, T/C [29] 41.7% | viability, T/C [30] 19.3% | viability, T/C [31] 48.7% | viability, T/C [32] 85.9% | viability, T/C [33] 58.9% | viability, T/C [34] 66.3% | viability, T/C [35] 32.3% | viability, T/C [36] 15.8%

CCCS(=O)(=O)Nc1ccc(F)c(C(=O)c2c[nH]c3ncc(-c4ccc(Cl)cc4)cc23)c1F + Cc1[nH]c2ccc(F)cc2c1-c1nc2c3cccnc3c3ncccc3c2[nH]1
7.75 µM: IC50 (second compound 1 µM)
9.15 µM: IC50 (second compound 0.0316 µM)
inactive: viability, T/C [1] 86.4% | viability, T/C [2] 137% | viability, T/C [3] 107% | viability, T/C [4] 117% | viability, T/C [5] 130% | viability, T/C [6] 44.5% | viability, T/C [7] 87.7% | viability, T/C [8] 105% | viability, T/C [9] 117% | viability, T/C [10] 128% | viability, T/C [11] 122% | viability, T/C [12] 41% | viability, T/C [13] 92.1% | viability, T/C [14] 102% | viability, T/C [15] 140% | viability, T/C [16] 137% | viability, T/C [17] 125% | viability, T/C [18] 36.3% | viability, T/C [19] 112% | viability, T/C [20] 109% | viability, T/C [21] 108% | viability, T/C [22] 126% | viability, T/C [23] 128% | viability, T/C [24] 31% | viability, T/C [25] 77% | viability, T/C [26] 111% | viability, T/C [27] 76.7% | viability, T/C [28] 92.2% | viability, T/C [29] 75.9% | viability, T/C [30] 11.3% | viability, T/C [31] 84.6% | viability, T/C [32] 80.8% | viability, T/C [33] 85.2% | viability, T/C [34] 117% | viability, T/C [35] 109% | viability, T/C [36] 13.8%
5.03 µM: IC50 (second compound 3.16 µM)
8.66 µM: IC50 (second compound 0.1 µM)
5.99 µM: IC50 (second compound 10 µM)
8.26 µM: IC50 (second compound 0.316 µM)
